Reference: patent US5914319A, “Antithrombotic agents” (Eli Lilly and Company, priority 1995, dated 1999)
Where a name gives a salt, the structure may show the parent alone.

Experiments:
Type in all cases: biochemical
Human plasma [1] = assay: Human plasma anticoagulation, thrombin time (TT); settings: concentration required to double the thrombin time, linear extrapolation
In short: (§1)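 Values are concentrations estimated by linear extrapolation to double the clotting time in human plasma containing test compound across a wide range. Thrombin time was triggered with bovine thrombin at 10 NIH units/mL plus saline, and prothrombin time with Thromboplastin-C plus saline. For APTT, plasma sat with Actin reagent for 120 seconds before 0.02M CaCl2.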

Human plasma [2] = assay: Human plasma anticoagulation, prothrombin time (PT); settings: concentration required to double the PT, linear extrapolation
Protocol: Dog plasma and rat plasma is obtained from conscious mixed-breed hounds (either sex, Hazelton-LRE, Kalamazoo, Mich., U.S.A.) or from anesthetized male Sprague-Dawley rats (Harlan Sprague-Dawley, Inc., Indianapolis, Ind., U.S.A.) by venipuncture into 3.8 percent citrate. Fibrinogen is prepared from in-date ACD human blood as the fraction I-2 according to previous procedures and specifications. […] Human fibrinogen is also purchased as 98 percent pure/plasmin free from American Diagnostica, Greenwich, Conn. Coagulation reagents ACTIN, Thromboplastin, and Human plasma are from Baxter Healthcare Corp., Dade Division, Miami, Fla. Bovine thrombin from Parke-Davis ([…], Mich.) is used for coagulation assays in plasma.
Coagulation assay procedures are as previously described. […] A CoAScreener coagulation instrument (American LABor, Inc.) is used for all coagulation assay measurements. The prothrombin time (PT) is measured by adding 0.05 mL saline and 0.05 mL Thromboplastin-C reagent to 0.05 mL test plasma. The activated partial thromboplastin time (APTT) is measured by incubation of 0.05 mL test plasma with 0.05 mL Actin reagent for 120 seconds followed by 0.05 mL CaCl2 (0.02M). The thrombin time (TT) is measured by adding 0.05 mL saline and 0.05 mL thrombin (10 NIH units/mL) to 0.05 mL test plasma. The compounds of Formula I are added to human or animal plasma over a wide range of concentrations to determine prolongation effects on the APTT, PT, and TT assays. Linear extrapolations are performed to estimate the concentrations required to double the clotting time for each assay.

Human plasma [3] = assay: Human plasma anticoagulation, activated partial thromboplastin time (APTT); settings: concentration required to double the APTT, linear extrapolation
In short: as §1

SMILES | Human Plasma Anticoagulation 2× Clotting time (ng/mL) TT (Human plasma [1]) | Human Plasma Anticoagulation 2× Clotting time (ng/mL) PT (Human plasma [2]) | Human Plasma Anticoagulation 2× Clotting time (ng/mL) APTT (Human plasma [3])
Cl.O=C(O)CN[C@H](CC1CCCCC1)C(=O)N1CCC[C@H]1C(=O)NCC1=CCNCC1 [Example 58, HO2 CCH2 -D-Cha-Pro-4-NHCH2 -3,4-dehydropiperidine.HCl] | 710 ng/mL | 11,400 ng/mL | 14,300 ng/mL
Cl.O=C(O)CN[C@H](CC1CCCCC1)C(=O)N1CCC[C@H]1C(=O)NCCC1=CCNCC1 [Example 59, HO2 CCH2 -D-Cha-Pro-4-NHCH2 CH2 -3,4-dehydropiperidine.HCl] | 420 ng/mL | 7,000 ng/mL | 5,500 ng/mL
Cl.O=C(O)CN[C@H](CC1CCCCC1)C(=O)N1CCC[C@H]1C(=O)NCCCC1=CCNCC1 [Example 60, HO2 CCH2 -D-Cha-Pro-4-NHCH2 CH2 CH2 -3,4-dehydropiperidine.HCl] | 3,200 ng/mL | 77,700 ng/mL | 22,200 ng/mL
N=C(N)c1ccc(CNC(=O)[C@@H]2CCCN2C(=O)[C@@H](CC2CCCCC2)NCC(=O)O)nc1 [Example 66, HO2 CCH2 -D-Cha-Pro-2-NHCH2 -5-amidinopyridine.HCl] | 7.9 ng/mL | 270 ng/mL | 180 ng/mL
N=C(N)C1CCC(CNC(=O)[C@@H]2CCCN2C(=O)[C@@H](CC2CCCCC2)NCC(=O)O)NC1 (stereo partly drawn) [Example 67, HO2 CCH2 -D-Cha-Pro-2-NHCH2 -5-amidinopiperidine.HCl] | 34. ng/mL | 1,300 ng/mL | 1,800 ng/mL
Cl.N=C(N)C1=CNC(CNC(=O)[C@@H]2CCCN2C(=O)[C@@H](CC2CCCCC2)NCC(=O)O)CC1 (stereo partly drawn) [Example 68, HO2 CCH2 -D-Cha-Pro-2-NHCH2 -5-amidino-5,6-dehydro-piperidine.HCl] | 4. ng/mL | 190 ng/mL | 49 ng/mL
Cl.N=C(N)c1ccc(CNC(=O)[C@@H]2CCCN2C(=O)[C@@H](CC2CCCCC2)NCC(=O)O)nn1 [Example 69, HO2 CCH2 -D-Cha-Pro-3-NHCH2 -6-amidinopyridazine.HCl] | 5. ng/mL | 220 ng/mL | 110 ng/mL
Cl.N=C(N)N1CC=C(CNC(=O)[C@@H]2CCCN2C(=O)[C@@H](CC2CCCCC2)NCC(=O)O)CC1 [Example 70, HO2 CCH2 -D-Cha-Pro-4-NHCH2 -1-amidino-3,4-dehydro-piperidine.HCl] | 2 ng/mL | 180 ng/mL | 160 ng/mL
Cl.N=C(N)c1ccc(CNC(=O)[C@@H]2CCCN2C(=O)[C@@H](CC2CCCCC2)NCC(=O)O)c(F)c1 [Example 71, HO2 CCH2 -D-Cha-Pro-4-NHCH2 -3-F-benzamidine.HCl] | 1 ng/mL | 150 ng/mL | 89 ng/mL
Cl.N=C(N)c1cc(F)c(CNC(=O)[C@@H]2CCCN2C(=O)[C@@H](CC2CCCCC2)NCC(=O)O)c(F)c1 [Example 72, HO2 CCH2 -D-Cha-Pro-4-NHCH2 -3,5-F2 -benzamidine.HCl] | 1 ng/mL | 160 ng/mL | 160 ng/mL
Cl.Nc1cc(CNC(=O)[C@@H]2CCCN2C(=O)[C@@H](CC2CCCCC2)NCC(=O)O)ccn1 [Example 73, HO2 CCH2 -D-Cha-Pro-4-NHCH2 -2-aminopyridine.HCl] | 21 ng/mL | 330 ng/mL | 340 ng/mL
Cl.Nc1ccc(CNC(=O)[C@@H]2CCCN2C(=O)[C@@H](CC2CCCCC2)NCC(=O)O)cn1 [Example 74, HO2 CCH2 -D-Cha-Pro-5-NHCH2 -2-aminopyridine.HCl] | 20 ng/mL | 350 ng/mL | 420 ng/mL
Cl.Nc1cc(CCNC(=O)[C@@H]2CCCN2C(=O)[C@@H](CC2CCCCC2)NCC(=O)O)ccn1 [Example 76, HO2 CCH2 -D-Cha-Pro-4-NHCH2 CH2 -2-aminopyridine.HCl] | 29 ng/mL | 560 ng/mL | 490 ng/mL
Nc1ccc(CNC(=O)[C@@H]2CCCN2C(=O)[C@@H](CC2CCCCC2)NCC(=O)O)cc1F [Example 77, HO2 CCH2 -D-Cha-Pro-4-NHCH2 -2-F-aniline.HCl] | 53 ng/mL | 890 ng/mL | 1,600 ng/mL
NCc1ccc(CNC(=O)[C@@H]2CCCN2C(=O)[C@@H](CC2CCCCC2)NCC(=O)O)cc1 [Example 78, HO2 CCH2 -D-Cha-Pro-4-NHCH2 C6 H4 CH2 NH2.HCl] | 46 ng/mL | 760 ng/mL | 430 ng/mL
NCC1CCC(CNC(=O)[C@@H]2CCCN2C(=O)[C@@H](CC2CCCCC2)NCC(=O)O)CC1 (stereo partly drawn) [Example 79, HO2 CCH2 -D-Cha-Pro-4-NHCH2 C6 H10 CH2 NH2.HCl] | 140 ng/mL | 2,400 ng/mL | 1,700 ng/mL
CCS(=O)(=O)N[C@H](CC1CCCCC1)C(=O)N1CCC[C@H]1C(=O)NCc1ccc(C(=N)N)cc1.Cl [Example 80, EtSO2 -D-Cha-Pro-4-NHCH2 C6 H4 C(NH)NH2.HCl] | 4 ng/mL | 130 ng/mL | 40 ng/mL
CCS(=O)(=O)N[C@H](CC1CCCCC1)C(=O)N1CCC[C@H]1C(=O)NCc1ccc(CN)cc1 [Example 81, EtSO2 -D-Cha-Pro-4-NHCH2 C6 H4 CH2 NH2.HCl] | 110 ng/mL | 2,700 ng/mL | 1,500 ng/mL
CCS(=O)(=O)N[C@H](CC1CCCCC1)C(=O)N1CCC[C@H]1C(=O)NCc1ccnc(N)c1.Cl [Example 83, EtSO2 -D-Cha-Pro-4-NHCH2 -2-aminopyridine.HCl] | 91 ng/mL | 1,300 ng/mL | 1,000 ng/mL
CCS(=O)(=O)N[C@H](CC1CCCCC1)C(=O)N1CCC[C@H]1C(=O)NCc1ccc(N)nc1.Cl [Example 84, EtSO2 -D-Cha-Pro-5-NHCH2 -2-aminopyridine.HCl] | 110 ng/mL | 1,900 ng/mL | 1,500 ng/mL
N=C(N)c1ccc(CNC(=O)[C@@H]2CCCN2C(=O)[C@@H](CC2CCCCC2)NCCCC(=O)O)cc1 [Example 85, HOOCCH2 CH2 CH2 -D-Cha-Pro-p-NHCH2 C6 H4 C(NH)NH2.HCl] | 4.9 ng/mL | 197 ng/mL | 100 ng/mL
N=C(N)c1ccc(CNC(=O)[C@@H]2CCCN2C(=O)[C@H](NCC(=O)O)C2CCCCC2)cc1 [Example 86, HOOCCH2 -D-Chg-Pro-p-NHCH2 C6 H4 C(NH)NH2.HCl] | 4 ng/mL | 180 ng/mL | 81 ng/mL
